The values below come from US9108926B2, “Disubstituted 5-fluoro-pyrimidines” (Bayer Intellectual Property GmbH, priority 2011, dated 2015).

Where two headings read alike, the source gives them in different places.

The target of one assay is CDK2/CycE (Homo sapiens, UniProt P24941). Briefly: CDK2/CycE kinase assay (TR-FRET, Method 2). A general note: In TR-FRET formats the signal depends on donor and acceptor labels being close together.
In assay [1] the target is T1, CDK9/CycT1 (Homo sapiens, UniProt P50750).
T1 sequence (P50750 whole entry): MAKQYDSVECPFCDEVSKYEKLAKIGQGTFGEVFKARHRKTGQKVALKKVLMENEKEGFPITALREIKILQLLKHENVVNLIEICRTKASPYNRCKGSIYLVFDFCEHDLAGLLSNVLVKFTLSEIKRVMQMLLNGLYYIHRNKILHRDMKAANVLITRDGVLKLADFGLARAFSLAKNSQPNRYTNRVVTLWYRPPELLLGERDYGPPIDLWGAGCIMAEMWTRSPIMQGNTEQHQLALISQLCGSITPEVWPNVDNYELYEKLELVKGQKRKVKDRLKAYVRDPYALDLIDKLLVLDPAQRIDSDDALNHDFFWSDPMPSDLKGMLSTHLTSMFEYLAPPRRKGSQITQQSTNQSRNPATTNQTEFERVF
T1 sequence (O60563 whole entry partner): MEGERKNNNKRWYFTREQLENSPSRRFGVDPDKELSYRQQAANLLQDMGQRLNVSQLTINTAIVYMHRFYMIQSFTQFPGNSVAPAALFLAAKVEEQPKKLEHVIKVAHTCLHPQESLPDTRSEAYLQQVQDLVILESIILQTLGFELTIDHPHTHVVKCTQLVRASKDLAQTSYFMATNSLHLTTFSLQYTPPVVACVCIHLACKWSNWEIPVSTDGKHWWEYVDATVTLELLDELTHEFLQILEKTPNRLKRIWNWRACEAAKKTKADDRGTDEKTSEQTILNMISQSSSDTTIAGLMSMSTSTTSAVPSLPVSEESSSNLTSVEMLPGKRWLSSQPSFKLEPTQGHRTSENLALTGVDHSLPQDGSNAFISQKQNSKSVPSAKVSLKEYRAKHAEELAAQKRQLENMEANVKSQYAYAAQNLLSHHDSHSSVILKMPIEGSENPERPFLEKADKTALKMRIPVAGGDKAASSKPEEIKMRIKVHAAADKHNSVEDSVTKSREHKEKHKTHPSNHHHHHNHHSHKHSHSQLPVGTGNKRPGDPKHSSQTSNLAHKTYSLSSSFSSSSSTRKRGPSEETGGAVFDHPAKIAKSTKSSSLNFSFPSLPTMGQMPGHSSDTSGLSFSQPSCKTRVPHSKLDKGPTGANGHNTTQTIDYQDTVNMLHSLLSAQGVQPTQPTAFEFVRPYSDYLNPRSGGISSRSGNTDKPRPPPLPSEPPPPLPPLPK
Protocol: CDK9/CycT1 High ATP Kinase Assay
CDK9/CycT1-inhibitory activity of compounds of the present invention at a high ATP concentration after preincubation of enzyme and test compounds was quantified employing the CDK9/CycT1 TR-FRET assay as described in the following paragraphs.
Recombinant full-length His-tagged human CDK9 and CycT1, expressed in insect cells and purified by Ni-NTA affinity chromatography, were purchase from Invitrogen (Cat. No PV4131). As substrate for the kinase reaction biotinylated peptide biotin-Ttds-[sequence]
For the assay 50 nl of a 100 fold concentrated solution of the test compound in DMSO was pipetted into a black low volume 384 well microtiter plate (Greiner Bio-One, Frickenhausen, Germany), 2 μl of a solution of CDK9/CycT1 in aqueous assay buffer [50 mM Tris/HCl pH 8.0, 10 mM MgCl2, 1.0 mM dithiothreitol, 0.1 mM sodium ortho-vanadate, 0.01% (v/v) Nonidet-P40 (Sigma)] were added and the mixture was incubated for 15 min at 22° C. to allow pre-binding of the test compounds to the enzyme before the start of the kinase reaction. Then the kinase reaction was started by the addition of 3 μl of a solution of adenosine-tri-phosphate (ATP, 3.3 mM=>final conc. in the 5 μl assay volume is 2 mM) and substrate (1.67 μM=>final conc. in the 5 μl assay volume is 1 μM) in assay buffer and the resulting mixture was incubated for a reaction time of 25 min at 22° C. The concentration of CDK9/CycT1 was adjusted depending of the activity of the enzyme lot and was chosen appropriate to have the assay in the linear range, typical concentrations were in the range of 0.5 μg/mL. The reaction was stopped by the addition of 5 μl of a solution of TR-FRET detection reagents (0.2 μM streptavidine-XL665 [Cisbio Bioassays, Codolet, France] and 1 nM anti-RB(pSer807/pSer811)-antibody from BD Pharmingen [#558389] and 1.2 nM LANCE EU-W1024 labeled anti-mouse IgG antibody [Perkin-Elmer, product no. AD0077]) in an aqueous EDTA-solution (100 mM EDTA, 0.2% (w/v) bovine serum albumin in 100 mM HEPES/NaOH pH 7.0).
(§2) The resulting mixture was incubated 1 h at 22° C. to allow the formation of complex between the phosphorylated biotinylated peptide and the detection reagents. Subsequently the amount of phosphorylated substrate was evaluated by measurement of the resonance energy transfer from the Eu-chelate to the streptavidine-XL. Therefore, the fluorescence emissions at 620 nm and 665 nm after excitation at 350 nm was measured in a HTRF reader, e.g. a Rubystar (BMG Labtechnologies, Offenburg, Germany) or a Viewlux (Perkin-Elmer). The ratio of the emissions at 665 nm and at 622 nm was taken as the measure for the amount of phosphorylated substrate.
For assay [2], the target named is T1, CDK9/CycT1. Nature of the assay: CDK9/CycT1 kinase assay (TR-FRET, Method 1a).
Description: CDK9/CycT1-inhibitory activity of compounds of the present invention was quantified employing the CDK9/CycT1 TR-FRET assay as described in the following paragraphs:
Recombinant full-length His-tagged human CDK9 and CycT1, expressed in insect cells and purified by Ni-NTA affinity chromatography, were purchased from Invitrogen (Cat. No PV4131). As substrate for the kinase reaction biotinylated peptide biotin-Ttds-[sequence] (C-terminus in amid form) was used which can be purchased e.g. form the company JERINI Peptide Technologies (Berlin, Germany).
For the assay 50 nl of a 100 fold concentrated solution of the test compound in DMSO was pipetted into a black low volume 384 well microtiter plate (Greiner Bio-One, Frickenhausen, Germany), 2 μl of a solution of CDK9/CycT1 in aqueous assay buffer [50 mM Tris/HCl pH 8.0, 10 mM MgCl2, 1.0 mM dithiothreitol, 0.1 mM sodium ortho-vanadate, 0.01% (v/v) Nonidet-P40 (Sigma)] were added and the mixture was incubated for 15 min at 22° C. to allow pre-binding of the test compounds to the enzyme before the start of the kinase reaction. Then the kinase reaction was started by the addition of 3 μl of a solution of adenosine-tri-phosphate (ATP, 16.7 μM=>final conc. in the 5 μl assay volume is 10 μM) and substrate (1.67 μM=>final conc. in the 5 μl assay volume is 1 μM) in assay buffer and the resulting mixture was incubated for a reaction time of 25 min at 22° C. The concentration of CDK9/CycT1 was adjusted depending of the activity of the enzyme lot and was chosen appropriate to have the assay in the linear range, typical concentrations were in the range of 1 μg/mL. The reaction was stopped by the addition of 5 μl of a solution of TR-FRET detection reagents (0.2 μM streptavidine-XL665 [Cisbio Bioassays, Codolet, France] and 1 nM anti-RB(pSer807/pSer811)-antibody from BD Pharmingen [#558389] and 1.2 nM LANCE EU-W1024 labeled anti-mouse IgG antibody [Perkin-Elmer, product no. AD0077]) in an aqueous EDTA-solution (100 mM EDTA, 0.2% (w/v) bovine serum albumin in 100 mM HEPES/NaOH pH 7.0).
as §2
In another assay the test system is HeLa-MaTu-ADR cells. Nature of the assay: Proliferation assay, HeLa-MaTu-ADR. The conditions noted are these: Homo sapiens, 96 h, read-out: Inhibition of HeLa-MaTu-ADR cell proliferation IC50. Type of assay: cell-based. Here is the method: (§1) After 24 hours, the cells of one plate (zero-point plate) were stained with crystal violet (see below), while the medium of the other plates was replaced by fresh culture medium (200 μl), to which the test substances were added in various concentrations (0 μM, as well as in the range of 0.001-10 μM; the final concentration of the solvent dimethyl sulfoxide was 0.5%). The cells were incubated for 4 days in the presence of test substances. Cell proliferation was determined by staining the cells with crystal violet: the cells were fixed by adding 20 μl/measuring point of an 11% glutaric aldehyde solution for 15 minutes at room temperature. After three washing cycles of the fixed cells with water, the plates were dried at room temperature. The cells were stained by adding 100 μl/measuring point of a 0.1% crystal violet solution (pH 3.0). After three washing cycles of the stained cells with water, the plates were dried at room temperature. The dye was dissolved by adding 100 μl/measuring point of a 10% acetic acid solution. […] The change of cell number, in percent, was calculated by normalization of the measured values to the extinction values of the zero-point plate (=0%) and the extinction of the untreated (0 μm) cells (=100%).

For another assay, the system named is DU145 cells. Nature of the assay: Proliferation assay, DU145. The following applies: Homo sapiens, DU-145, 96 h, read-out: Inhibition of DU145 cell proliferation IC50. Type of assay: cell-based. Here is the method: as §1
The test system of a further assay is B16F10 cells. Nature of the assay: Proliferation assay, B16F10. It counts as cell-based. The conditions noted are these: Mus musculus, B16-F10, 96 h, read-out: Inhibition of B16F10 cell proliferation IC50. Here is the method:
as §1

A further assay relates to NCI-H460 cells. Nature of the assay: Proliferation assay, NCI-H460. The following applies: Homo sapiens, read-out: Inhibition of NCI-H460 cell proliferation IC50. It counts as cell-based. Here is the method: as §1
The test system of the next assay is Caco-2 cells. Nature of the assay: Proliferation assay, Caco-2. Type of assay: cell-based. The conditions noted are these: Homo sapiens, read-out: Inhibition of Caco-2 cell proliferation IC50. Here is the method: as §1
The next assay concerns HeLa cells. Nature of the assay: Proliferation assay, HeLa. It counts as cell-based. The following applies: Homo sapiens, 96 h, read-out: Inhibition of HeLa cell proliferation IC50. The procedure: as §1
[3] abbreviates: HeLa-MaTu-ADR, 4 days, crystal violet.
[4] abbreviates: 96 h, NCI-H460, 4 days, crystal violet.
The mark [5] stands for this setting: 96 h, Caco-2, 4 days, crystal violet.

Description for CDK2/CycE: CDK2/CycE-inhibitory activity of compounds of the present invention was quantified employing the CDK2/CycE TR-FRET assay as described in the following paragraphs:
Recombinant fusion proteins of GST and human CDK2 and of GST and human CycE, expressed in insect cells (Sf9) and purified by Glutathion-Sepharose affinity chromatography, were purchased from ProQinase GmbH (Freiburg, Germany). As substrate for the kinase reaction biotinylated peptide biotin-Ttds-[sequence] (C-terminus in amid form) was used which can be purchased e.g. form the company JERINI Peptide Technologies (Berlin, Germany).
For the assay 50 nl of a 100 fold concentrated solution of the test compound in DMSO was pipetted into a black low volume 384 well microtiter plate (Greiner Bio-One, Frickenhausen, Germany), 2 μl of a solution of CDK2/CycE in aqueous assay buffer [50 mM Tris/HCl pH 8.0, 10 mM MgCl2, 1.0 mM dithiothreitol, 0.1 mM sodium ortho-vanadate, 0.01% (v/v) Nonidet-P40 (Sigma)] were added and the mixture was incubated for 15 min at 22° C. to allow pre-binding of the test compounds to the enzyme before the start of the kinase reaction. Then the kinase reaction was started by the addition of 3 μl of a solution of adenosine-tri-phosphate (ATP, 16.7 μM=>final conc. in the 5 μl assay volume is 10 μM) and substrate (1.25 μM=>final conc. in the 5 μl assay volume is 0.75 μM) in assay buffer and the resulting mixture was incubated for a reaction time of 25 min at 22° C. The concentration of CDK2/CycE was adjusted depending of the activity of the enzyme lot and was chosen appropriate to have the assay in the linear range, typical concentrations were in the range of 130 ng/mL. The reaction was stopped by the addition of 5 μl of a solution of TR-FRET detection reagents (0.2 μM streptavidine-XL665 [Cisbio Bioassays, Codolet, France] and 1 nM anti-RB(pSer807/pSer811)-antibody from BD Pharmingen [#558389] and 1.2 nM LANCE EU-W1024 labeled anti-mouse IgG antibody [Perkin-Elmer, product no. AD0077]) in an aqueous EDTA-solution (100 mM EDTA, 0.2% (w/v) bovine serum albumin in 100 mM HEPES/NaOH pH 7.0).
The resulting mixture was incubated 1 h at 22° C. to allow the formation of complex between the phosphorylated biotinylated peptide and the detection reagents. Subsequently the amount of phosphorylated substrate was evaluated by measurement of the resonance energy transfer from the Eu-chelate to the streptavidine-XL. Therefore, the fluorescence emissions at 620 nm and 665 nm after excitation at 350 nm was measured in a TR-FRET reader, e.g. a Rubystar (BMG Labtechnologies, Offenburg, Germany) or a Viewlux (Perkin-Elmer). The ratio of the emissions at 665 nm and at 622 nm was taken as the measure for the amount of phosphorylated substrate.

As to `O=S(=O)(Cc1cccc(Nc2ncc(F)c(-c3ccc(F)cc3OCc3ccccc3)n2)c1)C1CCCCC1` [Example 6, 4-[2-(Benzyloxy)-4-fluorophenyl]-N-{3-[(cyclohexylsulfonyl)methyl]phenyl}-5-fluoropyrimidin-2-amine], the IC50 is no less than 20000 nM on CDK2/CycE, 98 nM at CDK9/CycT1 [1] and 51 nM against CDK9/CycT1 [2].

Take `COc1cc(F)ccc1-c1nc(Nc2cccc(CS(=O)(=O)CCO)c2)ncc1F` [Example 8, 2-[(3-{[5-Fluoro-4-(4-fluoro-2-methoxyphenyl)pyrimidin-2-yl]amino}benzyl)sulfonyl]ethanol]: the IC50 was found to be 380 nM in the assay on HeLa-MaTu-ADR cells (setting [3]); 310 nM against CDK2/CycE; 640 nM in the assay on DU145 cells (DU145, 4 days, crystal violet); 950 nM with B16F10 cells (B16F10, 4 days, crystal violet); 710 nM in the assay on NCI-H460 cells (setting [4]); 103 nM on CDK9/CycT1 [1]. Besides, the IC50 at CDK9/CycT1 [2] was 9 nM; in the assay on Caco-2 cells (setting [5]) it was 710 nM; with HeLa cells (4 days, crystal violet), 1000 nM.

`COCCS(=O)(=O)Cc1cccc(Nc2ncc(F)c(-c3ccc(F)cc3OCc3ccccc3)n2)c1` [Example 3, 4-[2-(Benzyloxy)-4-fluorophenyl]-5-fluoro-N-(3-{[(2-methoxyethyl)sulfonyl]methyl}phenyl)pyrimidin-2-amine]: the IC50 was 1000 nM in the assay with HeLa-MaTu-ADR cells (setting [3]); 1200 nM against CDK2/CycE; 1300 nM with DU145 cells (DU145, 4 days, crystal violet); 1200 nM in the assay with B16F10 cells (B16F10, 4 days, crystal violet); 1200 nM in the assay on NCI-H460 cells (setting [4]); 10 nM on CDK9/CycT1 [1]. Further, the IC50 at CDK9/CycT1 [2] is 10 nM; with Caco-2 cells (setting [5]), 1100 nM; in the assay on HeLa cells (4 days, crystal violet) it was 1200 nM.

Take `CS(=O)(=O)Cc1cccc(Nc2ncc(F)c(-c3ccc(F)cc3OCc3ccccc3)n2)c1` [Example 2, 4-[2-(Benzyloxy)-4-fluorophenyl]-5-fluoro-N-{3-[(methylsulfonyl)methyl]phenyl}pyrimidin-2-amine]: the IC50 in the assay with HeLa-MaTu-ADR cells (setting [3]) is 300 nM; against CDK2/CycE, 840 nM; in the assay with DU145 cells (DU145, 4 days, crystal violet) it was 410 nM; in the assay with B16F10 cells (B16F10, 4 days, crystal violet) it was 820 nM; in the assay on NCI-H460 cells (setting [4]), 370 nM; at CDK9/CycT1 [1], 8 nM. In addition, the IC50 amounted to 8 nM against CDK9/CycT1 [2]; 490 nM in the assay on Caco-2 cells (setting [5]); 350 nM in the assay on HeLa cells (4 days, crystal violet).

Regarding `CS(=O)(=O)Cc1cccc(Nc2ncc(F)c(-c3cccc4c3OCCO4)n2)c1` [Example 13, 4-(2,3-Dihydro-1,4-benzodioxin-5-yl)-5-fluoro-N-{3-[(methylsulfonyl)methyl]phenyl}pyrimidin-2-amine], the IC50 came out at 190 nM in the assay on HeLa-MaTu-ADR cells; 120 nM at CDK2/CycE; 310 nM in the assay with DU145 cells; 510 nM with B16F10 cells; 340 nM in the assay with NCI-H460 cells (NCI-H460, 96 h); 5 nM against CDK9/CycT1 [1]. The IC50 against CDK9/CycT1 [2] was found to be 6 nM; in the assay on Caco-2 cells (Caco-2, 96 h), 220 nM; in the assay with HeLa cells it was 210 nM.

Take `CS(=O)(=O)Cc1cccc(Nc2ncc(F)c(-c3cccc4c3OCCC4)n2)c1` [Example 9, 4-(3,4-Dihydro-2H-chromen-8-yl)-5-fluoro-N-{3-[(methylsulfonyl)methyl]phenyl}pyrimidin-2-amine]: the IC50 with HeLa-MaTu-ADR cells (setting [3]) stood at 200 nM; on CDK2/CycE it was 300 nM; in the assay with DU145 cells (DU145, 4 days, crystal violet) it was 320 nM; with B16F10 cells (B16F10, 4 days, crystal violet), 340 nM; in the assay with NCI-H460 cells (setting [4]), 340 nM; in the assay on Caco-2 cells (setting [5]), 270 nM. Besides, the IC50 in the assay on HeLa cells (4 days, crystal violet) was 360 nM.

On to `CS(=O)(=O)Cc1cccc(Nc2ncc(F)c(-c3ccc(F)cc3OCc3cccnc3)n2)c1` [Example 16, 5-Fluoro-4-[4-fluoro-2-(pyridin-3-ylmethoxy)phenyl]-N-{3-[(methylsulfonyl)methyl]phenyl}pyrimidin-2-amine], for which the IC50 in the assay on HeLa-MaTu-ADR cells (setting [3]) was determined as 350 nM; against CDK2/CycE it was 820 nM; in the assay on DU145 cells (DU145, 4 days, crystal violet), 300 nM; in the assay with B16F10 cells (B16F10, 4 days, crystal violet), 410 nM; in the assay on NCI-H460 cells (setting [4]) it was 320 nM; against CDK9/CycT1 [1], 19 nM. Besides, the IC50 against CDK9/CycT1 [2] amounted to 8 nM; in the assay on Caco-2 cells (setting [5]), 440 nM; with HeLa cells (4 days, crystal violet), 380 nM.

In the case of `O=S(=O)(Cc1cccc(Nc2ncc(F)c(-c3cccc4c3OCCC4)n2)c1)C1CC1` [Example 10, N-{3-[(Cyclopropylsulfonyl)methyl]phenyl}-4-(3,4-dihydro-2H-chromen-8-yl)-5-fluoropyrimidin-2-amine], the IC50 against CDK2/CycE worked out at 210 nM; with HeLa cells (4 days, crystal violet) it was 1100 nM.

For `COc1cc(F)ccc1-c1nc(Nc2cccc(CS(=O)(=O)Cc3ccccc3)c2)ncc1F` [Example 15, N-{3-[(Benzylsulfonyl)methyl]phenyl}-5-fluoro-4-(4-fluoro-2-methoxyphenyl)-pyrimidin-2-amine], the IC50 against CDK2/CycE came to 1100 nM; on CDK9/CycT1 [1], 83 nM; on CDK9/CycT1 [2], 10 nM; in the assay on HeLa cells (4 days, crystal violet), 1800 nM.

As to `COc1cc(F)ccc1-c1nc(Nc2cccc(CS(=O)(=O)C(C)C)c2)ncc1F` [Example 7, 5-Fluoro-4-(4-fluoro-2-methoxyphenyl)-N-{3-[(propan-2-ylsulfonyl)methyl]phenyl}pyrimidin-2-amine], the IC50 came out at 510 nM on CDK2/CycE and 1100 nM in the assay with HeLa cells (4 days, crystal violet).

With `CC(C)S(=O)(=O)Cc1cccc(Nc2ncc(F)c(-c3ccc(F)cc3OCc3ccccc3)n2)c1` [Example 5, 4-[2-(Benzyloxy)-4-fluorophenyl]-5-fluoro-N-{3-[(propan-2-ylsulfonyl)methyl]phenyl}pyrimidin-2-amine], the IC50 was determined as 1600 nM against CDK2/CycE, 20 nM at CDK9/CycT1 [1] and 14 nM at CDK9/CycT1 [2].

For the compound `CS(=O)(=O)Cc1cc(F)cc(Nc2ncc(F)c(-c3ccc(F)cc3OCc3ccccc3)n2)c1` [Example 11, 4-[2-(Benzyloxy)-4-fluorophenyl]-5-fluoro-N-{3-fluoro-5-[(methylsulfonyl)methyl]phenyl}pyrimidin-2-amine], the IC50 is 1100 nM at CDK2/CycE and 1000 nM in the assay with HeLa cells (4 days, crystal violet).

Consider `CC(C)(C)S(=O)(=O)Cc1cccc(Nc2ncc(F)c(-c3ccc(F)cc3OCc3ccccc3)n2)c1` [Example 4, 4-[2-(Benzyloxy)-4-fluorophenyl]-N-{3-[(tert-butylsulfonyl)methyl]phenyl}-5-fluoropyrimidin-2-amine], for which the IC50 against CDK2/CycE came out at 3100 nM; against CDK9/CycT1 [1] it was 80 nM; on CDK9/CycT1 [2] it was 29 nM.

Consider `COc1cc(F)ccc1-c1nc(Nc2cccc(CS(=O)(=O)C3CC3)c2)ncc1F` [Example 14, N-{3-[(Cyclopropylsulfonyl)methyl]phenyl}-5-fluoro-4-(4-fluoro-2-methoxyphenyl)pyrimidin-2-amine], for which the IC50 on CDK2/CycE was determined as 780 nM; against CDK9/CycT1 [1], 40 nM; against CDK9/CycT1 [2] it was 8 nM; with HeLa cells (4 days, crystal violet) it was 670 nM.
